Experimental findings from patent US6407122B1, “Amino-benzothiazole derivatives” (Pharmacia & Upjohn S.p.A., priority 1997, dated 2002) are described below.

In this assay the test system is mixed cortical neuronal cultures. As to the kind of experiment: Neuroprotection against NMDA (500 μM) toxicity in mixed cortical neuronal cultures, Trypan Blue Dye Exclusion Test. The following applies: Rattus norvegicus, Cortical neurone; cultured cortical neurons from foetal rats; 3 min preincubation, 20 min exposure to NMDA 500 μM, viability after 24 hours; mean of at least 3 different experiments; read-out: EC50 (neuroprotective effect). The format is cell-based. The protocol:
The efficacy of the compounds of the invention as neuroprotective agents was evaluated in mixed cortical neuronal cultures, following the method reported below.
Mixed cortical neuronal cultures from foetal rats at 16 days of gestation were prepared as described by Choi (j. Neur. Sci. 7: 357-368, 1987). Briefly dissociated cells were plated on poly-L-lysine coated multiwell plates at density of 1*10^5 cells/cm^2 in MEM with Earle's salts supplemented with 21 mM D-glucose, 2 mM L-glutamine, 50 μg/ml Streptomicin, 50 IU Penicillin, 10% Foetal Calf Serum and 10% Horse Serum. Cultures were kept at 37° C., 5% CO2 and survived about 5 weeks. After 7 days in vitro, astrocites proliferation was inhibited by adding 10 μM Cytosine Arabinoside for 48 hours; the medium was subsequently substituted twice a week with a fresh medium without foetal call serum (Hatley, J. Pharm. and Exp. Ther. 250 (II);752-758, 1989).
Only nature cortical cultures, from 14 DIV on, were used for the study. Experiments were performed at 25° C. as follows: cells were washed once with a Locke's buffer, (128 mM NaCl, […], 1.2 mM Na2HPO4, 2.7 mM CaCl2, 20 mM Hepes and 10 mM D-glucose) pH=7.4, then preincubated with the test compounds for 3 min. followed by a 20 min. exposure to N-methyl-D-aspartate (NMDA) (500 μM).
The incubation was stopped by removing Locke's buffer and substituting the conditioned medium. […]

By EC50 is commonly meant the midpoint of the concentration-response curve. On to `OC(CN1CCC(Cc2ccc(F)cc2)CC1)c1ccc(Cl)cc1` (centres unmarked) [Eliprodil], for which the concentration for a half-maximal effect (EC50) was determined as 2260 nM.

In the case of `Nc1nc2ccc(CCN3CCC(Cc4ccccc4)CC3)cc2s1` [Example 15, 1-(2-Amino-benzothiazol-6-yl)-2-(4-benzyl-piperidin-1-yl)-ethane], the EC50 is 640 nM.
